Test results as given in patent US11773071B2, “Benzothiazepine compounds and their use as bile acid modulators” (Albireo AB, priority 2019, dated 2023).

Assays:
Human LBAT = molecular target: T1, Human LBAT (Homo sapiens, UniProt Q14973); assay: LBAT (h/m) assay, human LBAT-overexpressing cells, 3H-taurocholic acid uptake; assay type: cell-based; details: 0.3 μM 3H-taurocholic acid and 7.5 μM cold taurocholic acid, 20 minutes, read-out: hLBAT IC50
T1 construct: expressed in transfected cells; Geneticin-selected
T1 sequence (Q14973 1-349): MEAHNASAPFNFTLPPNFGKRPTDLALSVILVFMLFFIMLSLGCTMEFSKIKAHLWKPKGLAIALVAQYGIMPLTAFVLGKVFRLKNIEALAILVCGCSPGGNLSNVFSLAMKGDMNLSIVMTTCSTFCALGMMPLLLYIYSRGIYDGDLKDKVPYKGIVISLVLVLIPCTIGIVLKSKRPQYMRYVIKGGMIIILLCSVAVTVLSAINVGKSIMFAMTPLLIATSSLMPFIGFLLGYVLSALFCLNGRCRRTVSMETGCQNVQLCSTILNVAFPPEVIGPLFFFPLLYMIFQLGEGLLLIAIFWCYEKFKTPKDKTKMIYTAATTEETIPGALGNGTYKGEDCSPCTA
Experimental: LBAT (h/m) Assay Protocol
20,000 cells (Human or Mouse LBAT-overexpressing cells) were seeded in 96-wells plate (Corning CLS3809) in 100 μL MEM-alpha medium (Gibco 12571-063) supplemented with 10% FBS (Gibco 10438026) containing Geneticin (Gibco 10131-027) (1 mg/mL) and incubated at 37° C. in 5% CO2 for 24 hours. After incubation, media was decanted from the wells and cells were washed two times with 300 μL of basal MEM-alpha medium (FBS-free). After decanting basal MEM-alpha medium each time, plates were tapped against paper towel to ensure maximum removal of residual media.
For human LBAT, incubation mix was prepared by adding test inhibitor dilutions (3-fold serial dilution in DMSO (Sigma D2650), 10 points) in MEM-alpha (without FBS) containing 0.3 μM 3H-taurocholic acid (ARC ART-1368) and 7.5 μM cold taurocholic acid (Sigma T4009) (maintaining 0.2% final DMSO concentration). For mouse LBAT, incubation mix was prepared by adding test inhibitor dilutions (3-fold serial dilution in DMSO, 10 points) in MEM-alpha (without FBS) containing 0.3 μM 3H-taurocholic acid and 25 μM cold taurocholic acid maintaining 0.2% final DMSO concentration). 50 μL of incubation mix containing test inhibitors was then added to the wells (in duplicate) and the plates were incubated for 20 minutes in a CO2 incubator at 37° C. After incubation, the reaction was stopped by keeping the plates on ice water mix for 2-3 minutes and then the incubation mix was aspirated completely from the wells. The wells were washed two times with 250 μL of chilled unlabelled 1 mM taurocholic acid dissolved in HEPES (Gibco 15630080)-buffered (10 mM) HBSS (Gibco 14175079) (pH 7.4). The plates were tapped against a paper towel after every wash to ensure maximum removal of blocking buffer. 100 μL of MicroScint-20 (PerkinElmer 6013621) was added to the wells and kept overnight at room temperature before reading the plates in TopCount NXT™ Microplate Scintillation and Luminescence Counter from PerkinElmer under 3H Test protocol (set at 120 seconds reading time per well, with normal plate orientation).
(§1) Preparation of Test Compound Dilutions
(§2) All test compounds were provided in powder form at room temperature. 10 mM DMSO stocks of the test compounds were prepared, aliquoted and stored at −20° C. From the 10 mM DMSO stock of the compounds, a 3-fold serial dilution in DMSO was prepared to get a total of 10 dilutions of the test compounds. 0.5 μL of this dilution in DMSO was added to 250 μL of FBS-free basal media containing 3H-taurocholic acid and cold taurocholic acid to prepare the incubation mixture.

Human IBAT = molecular target: T2, Human IBAT (Homo sapiens, UniProt Q12908); assay: IBAT (h/m) assay, human IBAT-overexpressing cells, 3H-taurocholic acid uptake; assay type: cell-based; details: 0.25 μM 3H-taurocholic acid and 5 μM cold taurocholic acid, 20 minutes, read-out: hIBAT IC50
T2 construct: expressed in transfected cells; Puromycin-selected
T2 sequence (Q12908 1-348): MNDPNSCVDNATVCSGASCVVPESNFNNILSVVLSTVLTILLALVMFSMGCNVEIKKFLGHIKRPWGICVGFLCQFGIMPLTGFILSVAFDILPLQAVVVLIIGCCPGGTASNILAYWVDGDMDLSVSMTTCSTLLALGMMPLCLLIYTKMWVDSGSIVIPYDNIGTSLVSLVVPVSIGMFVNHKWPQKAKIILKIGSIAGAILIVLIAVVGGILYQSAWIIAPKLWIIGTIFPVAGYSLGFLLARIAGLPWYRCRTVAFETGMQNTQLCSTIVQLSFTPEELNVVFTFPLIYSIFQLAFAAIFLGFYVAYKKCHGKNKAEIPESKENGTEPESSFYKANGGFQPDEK
Experimental: IBAT (h/m) Assay Protocol
10,000 cells (Human or Mouse IBAT-overexpressing cells) were seeded in 96-wells plate (Corning CLS3809) in 200 μL MEM-alpha medium (Gibco 12571-063) supplemented with 10% FBS (Gibco 10438026) containing Puromycin (Gibco A1113803) (10 μg/mL) and incubated at 37° C. in 5% CO2 for 48 hours. After incubation, media was decanted from the wells and cells were washed two times with 300 μL of basal MEM-alpha medium (FBS-free). After decanting basal MEM-alpha medium each time, plates were tapped against paper towel to ensure maximum removal of residual media. Test inhibitor dilutions (highest test concentration being 10 μM, 3-fold serial dilution, 10 points) prepared in DMSO (Sigma D2650) were added in incubation mix (maintaining 0.2% final DMSO concentration) containing 0.25 μM 3H-taurocholic acid (ARC ART-1368) and 5 μM of cold taurocholic acid (Sigma T4009). 50 μL of incubation mix containing test inhibitors was then added to the wells (in duplicate) and the plates were incubated for 20 minutes in a CO2 incubator at 37° C. After incubation, the reaction was stopped by keeping the plates on ice water mix for 2-3 minutes and then the incubation mix was aspirated completely from the wells. The wells were washed two times with 250 μL of chilled unlabelled 1 mM taurocholic acid dissolved in HEPES (Gibco 15630080)-buffered (10 mM) HBSS (Gibco 14175079) (pH 7.4). The plates were tapped against a paper towel after every wash to ensure maximum removal of blocking buffer.
100 μL of MicroScint-20 (PerkinElmer 6013621) was added to the wells and kept overnight at room temperature before reading the plates in TopCount NXT™ Microplate Scintillation and Luminescence Counter from PerkinElmer under 3H Test protocol (set at 120 seconds reading time per well).
as §1, §2

IC50 (Human LBAT)	IC50 (Human IBAT)	SMILES
969 nM	418 nM	CCCCC1(CC)CN(c2ccccc2)c2cc(Cl)c(OCCC(=O)O)cc2S(=O)(=O)C1 (single isomer, unassigned) [Example 7, 3-((3-butyl-7-chloro-3-ethyl-1,1-dioxido-5-phenyl-2,3,4,5-tetrahydro-1,5-benzothiazepin-8-yl)oxy)propanoic acid]
4080 nM	35 nM	CCCCC1(C)CN(c2ccccc2)c2cc(SC)c(OCC(O)C(=O)O)cc2S(=O)(=O)C1 (single isomer, unassigned) [32, diastereomer 2]
543 nM	10 nM	CCCCC1(C)CN(c2ccccc2)c2cc(SC)c(OCCC(=O)O)cc2S(=O)(=O)C1 (racemic) [Example 22, 3-((3-butyl-3-methyl-7-(methylthio)-1,1-dioxido-5-phenyl-2,3,4,5-tetrahydro-1,5-benzothiazepin-8-yl)oxy)propanoic acid]
837 nM	241 nM	CCCCC1(CC)CN(c2ccccc2)c2cc(Br)c(OCCC(=O)O)cc2S(=O)(=O)C1 (single isomer, unassigned) [Example 3, 3-((7-bromo-3-butyl-3-ethyl-1,1-dioxido-5-phenyl-2,3,4,5-tetrahydro-1,5-benzothiazepin-8-yl)oxy)propanoic acid]
665 nM	2 nM	CCCCC1(CC)CN(c2ccccc2)c2cc(SC)c(OCC(O)C(=O)O)cc2S(=O)(=O)C1 (single isomer, unassigned) [40, diastereomer 3]
322 nM	52 nM	CCCCC1(CC)CN(c2ccccc2)c2cc(Cl)c(OC(C)CC(=O)O)cc2S(=O)(=O)C1 (single isomer, unassigned) [30, diastereomer 2]
495 nM	3 nM	CCCCC1(CC)CN(c2ccc(F)cc2)c2cc(SC)c(OCC(O)C(=O)O)cc2S(=O)(=O)C1 (centres unmarked) [Example 41, 3-((3-Butyl-3-ethyl-5-(4-fluorophenyl)-7-(methylthio)-1,1-dioxido-2,3,4,5-tetrahydro-1,5-benzothiazepin-8-yl)oxy)-2-hydroxypropanoic acid]
1390 nM	42 nM	CCCCC1(CCCC)CN(c2ccccc2)c2cc(SC)c(OCC(C)(O)C(=O)O)cc2S(=O)(=O)C1 (single isomer, unassigned) [Example 20, 3-((3,3-dibutyl-7-(methylthio)-1,1-dioxido-5-phenyl-2,3,4,5-tetrahydro-1,5-benzothiazepin-8-yl)oxy)-2-hydroxy-2-methylpropanoic acid]
376 nM	74 nM	CCCCC1(CCCC)CN(c2ccccc2)c2cc(Cl)c(OCCC(=O)O)cc2S(=O)(=O)C1 [Example 8, 3-((3,3-Dibutyl-7-chloro-1,1-dioxido-5-phenyl-2,3,4,5-tetrahydro-1,5-benzothiazepin-8-yl)oxy)propanoic acid]
297 nM	3 nM	CCCCC1(CC)CN(c2ccc(F)cc2)c2cc(SC)c(OCCC(=O)O)cc2S(=O)(=O)C1 (racemic) [Example 37, 3-((3-butyl-3-ethyl-5-(4-fluorophenyl)-7-(methylthio)-1,1-dioxido-2,3,4,5-tetrahydro-1,5-benzothiazepin-8-yl)oxy)propanoic acid]
791 nM	35 nM	CCCCC1(CC)CN(c2ccccc2)c2cc(Cl)c(OCCC(=O)O)cc2S(=O)(=O)C1 (racemic) [Example 5, 3-((3-Butyl-7-chloro-3-ethyl-1,1-dioxido-5-phenyl-2,3,4,5-tetrahydro-1,5-benzothiazepin-8-yl)oxy)propanoic acid]
1480 nM	26 nM	CCCCC1(CCCC)CN(c2ccccc2)c2cc(SC)c(OCC(OC)C(=O)O)cc2S(=O)(=O)C1 (racemic) [Example 46, 3-((3,3-Dibutyl-7-(methylthio)-1,1-dioxido-5-phenyl-2,3,4,5-tetrahydro-1,5-benzothiazepin-8-yl)oxy)-2-methoxypropanoic acid]
1370 nM	241 nM	CCCCC1(CC)CN(c2ccccc2)c2cc(SC)c(OCC(O)C(=O)O)cc2S(=O)(=O)C1 (single isomer, unassigned) [40, diastereomer 1]
